From PubChem BioAssay (NCI)
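Test compounds were applied to cells in 96-well plates for 48 hours at 5 doses. At the GI50, growth is halved. TGI: total growth inhibition.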

Columns and labels:
Assay in all cases: NCI anticancer screen, dose series, 48 h
[1] = test system: 786-0 renal
[2] = test system: A498 renal
[3] = test system: A549 NSCLC
[4] = test system: ACHN renal
[5] = test system: BT-549 breast
[6] = test system: CAKI-1 renal
[7] = test system: CCRF-CEM leukemia
[8] = test system: COLO 205 colon
[9] = test system: DU-145 prostate
[10] = test system: EKVX NSCLC
[11] = test system: HCC-2998 colon
[12] = test system: HCT-116 colon
[13] = test system: HCT-15 colon
[14] = test system: HL-60(TB) leukemia
[15] = test system: HOP-62 NSCLC
[16] = test system: HOP-92 NSCLC
[17] = test system: HS 578T breast
[18] = test system: HT29 colon
[19] = test system: IGROV1 ovarian
[20] = test system: K-562 leukemia
[21] = test system: KM12 colon
[22] = test system: LOX IMVI melanoma
[23] = test system: M14 melanoma
[24] = test system: MALME-3M melanoma
[25] = test system: MCF7 breast
[26] = test system: MDA-MB-231 breast
[27] = test system: MDA-MB-435
[28] = test system: MDA-MB-468 breast
[29] = test system: MOLT-4 leukemia
[30] = test system: NCI-H226 lung
[31] = test system: NCI-H23 lung
[32] = test system: NCI-H460 lung
[33] = test system: NCI-H522 lung
[34] = test system: NCI/ADR-RES ovarian
[35] = test system: OVCAR-3 ovarian
[36] = test system: OVCAR-4 ovarian
[37] = test system: OVCAR-5 ovarian
[38] = test system: OVCAR-8 ovarian
[39] = test system: PC-3 prostate
[40] = test system: RPMI-8226 leukemia
[41] = test system: RXF 393 renal
[42] = test system: SF-268 CNS
[43] = test system: SF-295 CNS
[44] = test system: SF-539 CNS
[45] = test system: SK-MEL-2 melanoma
[46] = test system: SK-MEL-28 melanoma
[47] = test system: SK-MEL-5 melanoma
[48] = test system: SK-OV-3 ovarian
[49] = test system: SN12C renal
[50] = test system: SNB-19 CNS
[51] = test system: SNB-75 CNS
[52] = test system: SR leukemia
[53] = test system: SW-620 colon
[54] = test system: T-47D breast
[55] = test system: TK-10 renal
[56] = test system: U251 CNS
[57] = test system: UACC-257 melanoma
[58] = test system: UACC-62 melanoma
[59] = test system: UO-31 renal

What does the source list for `COc1ccc(CN2[C@@H](C(=O)NCc3ccc(C(=O)NO)cc3)Cc3c([nH]c4ccccc34)[C@@H]2C)cc1`?
GI50 [1]: 5.15 µM; TGI [1]: > 21 µM; GI50 [2]: 0.822 µM; TGI [2]: 6.26 µM; GI50 [3]: 4.3 µM; TGI [3]: 16.5 µM; GI50 [4]: 3.67 µM; TGI [4]: 9.07 µM; GI50 [5]: 5.95 µM; TGI [5]: 15.6 µM; GI50 [6]: 2.83 µM; TGI [6]: 7.86 µM; GI50 [7]: 1.27 µM; TGI [7]: > 21 µM; GI50 [8]: 3.59 µM; TGI [8]: 8.33 µM; GI50 [9]: 4.41 µM; TGI [9]: 17.8 µM; GI50 [10]: 2.24 µM; TGI [10]: 13.5 µM; GI50 [11]: 2.72 µM; TGI [11]: 5.81 µM; GI50 [12]: 1.47 µM; TGI [12]: > 21 µM; GI50 [13]: 4.56 µM; TGI [13]: 19.8 µM; GI50 [14]: 2.65 µM; TGI [14]: 15.4 µM; GI50 [15]: 2.56 µM; TGI [15]: 7.92 µM; GI50 [16]: 2.2 µM; TGI [16]: 6.25 µM; GI50 [17]: 1.26 µM; TGI [17]: 13 µM; GI50 [18]: 3.84 µM; TGI [18]: > 21 µM; GI50 [19]: 2.56 µM; TGI [19]: 5.78 µM; GI50 [20]: 1.93 µM; TGI [20]: > 21 µM; GI50 [21]: 3.3 µM; TGI [21]: 7.85 µM; GI50 [22]: 3.23 µM; TGI [22]: 6.3 µM; GI50 [23]: 4.05 µM; TGI [23]: > 21 µM; GI50 [24]: 0.874 µM; TGI [24]: 4.86 µM; GI50 [25]: 3.02 µM; TGI [25]: 13.8 µM; GI50 [26]: 2.67 µM; TGI [26]: 5.73 µM; GI50 [27]: 1.27 µM; TGI [27]: 5.56 µM; GI50 [28]: 0.861 µM; TGI [28]: 4.45 µM; GI50 [29]: 1.6 µM; TGI [29]: > 21 µM; GI50 [30]: 1.98 µM; TGI [30]: 10.2 µM; GI50 [31]: 3.33 µM; TGI [31]: 7.51 µM; GI50 [32]: 2.86 µM; TGI [32]: 10.6 µM; GI50 [33]: 1.43 µM; TGI [33]: 5.35 µM; GI50 [34]: 8.01 µM; TGI [34]: > 21 µM; GI50 [35]: 2.51 µM; TGI [35]: 7.84 µM; GI50 [36]: 4.58 µM; TGI [36]: > 21 µM; GI50 [37]: 1.43 µM; TGI [37]: 8.11 µM; GI50 [38]: 2.44 µM; TGI [38]: 8.91 µM; GI50 [39]: 3.02 µM; TGI [39]: > 21 µM; GI50 [40]: 3.03 µM; TGI [40]: > 21 µM; GI50 [41]: 0.724 µM; TGI [41]: 3.71 µM; GI50 [42]: 4.21 µM; TGI [42]: 11.2 µM; GI50 [43]: 3.02 µM; TGI [43]: 6.21 µM; GI50 [44]: 2.7 µM; TGI [44]: 7.12 µM; GI50 [45]: 3.32 µM; TGI [45]: 7.3 µM; GI50 [46]: 2.6 µM; TGI [46]: 8.76 µM; GI50 [47]: 2.96 µM; TGI [47]: 6.02 µM; GI50 [48]: 2.58 µM; TGI [48]: 6.14 µM; GI50 [49]: 3.88 µM; TGI [49]: 13 µM; GI50 [50]: 3.49 µM; TGI [50]: 8.5 µM; GI50 [51]: 1.23 µM; TGI [51]: 7.27 µM; GI50 [52]: 0.335 µM; TGI [52]: > 21 µM; GI50 [53]: 2.34 µM; TGI [53]: 11.2 µM; GI50 [54]: 3.56 µM; TGI [54]: 12.8 µM; GI50 [55]: 2.6 µM; TGI [55]: 11.4 µM; GI50 [56]: 2.88 µM; TGI [56]: 8.88 µM; GI50 [57]: 2.19 µM; TGI [57]: 14.4 µM; GI50 [58]: 2.08 µM; TGI [58]: 5.29 µM; GI50 [59]: 2.93 µM; TGI [59]: 6.19 µM
